According to patent US4591552A, “Detection of hepatitis B surface antigen (or antibody to same) with labeled synthetic peptide” (priority 1982, dated 1986):

Test system: antiserum to the synthetic peptide
Experiment: Competition immunoassay: binding to Staphylococci (protein A) of β-galactosidase-conjugated peptide 135-155 complexed with homologous antibodies
Set-up: species or system rabbit
Details: control antigens
Experimental: It is known that immunoglobulins of the IgG class attach to Staphylococci carrying protein A. If the immunoglobulins are bound to labeled antigens thus forming immune complexes, such (labeled) complexes attach to the Staphylococci. […] The above forms the basis of the following test:
250 μl of mixtures containing various unlabeled antigens, 1:125 diluted antiserum to the synthetic peptide (see Example 3 above), 1:8,000 diluted peptide-β-galactosidase conjugate (see Example 2 above) and 50 mg/ml of bovine serum albumin (BSA) were each incubated for 30 minutes at 37° C. and mixed with an equal volume of a 2.5% suspension of Staphylococci (Pansorbin, Calbiochem, LaJolla, Calif.). The bacteria were pelleted, washed with tris-buffered saline, and the adsorbed β-galactosidase corresponding to the enzyme-peptide conjugate was determined fluorometrically as described by Neurrath and Strick, J. Virol. Methods, supra. The fluorescence in the absence of unlabeled competing antigens was 900.

## synthetic insulin A chain: control antigen
  inhibitory effect on binding of β-galactosidase activity to the bacteria: did not have any inhibitory effect
